Values of other authors in patent publication US20050287214A1, “Squeeze controlled oral dosage form” (priority 2004, published 2005).

Settings: solubility of the active agent as stated in the formulation tables; no method given

solubility: Ranitidine (solubility = 880 mg/ml)
Compound: CNC(=C[N+](=O)[O-])NCCSCc1ccc(CN(C)C)o1 [Ranitidine]
